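Five compound concentrations were applied to cells in 96-well plates for 48 hours; endpoints were derived by simple linear interpolation of the resulting dose-response curve. The concentration for 50% growth inhibition is given as GI50.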 Active and inactive are the calls of the source. Rule as the data show it: active = GI50 up to about 1.1 µM and inactive = higher.
What was measured:
Assay in all cases: NCI anticancer screen, dose series, 48 h
COLO 205 = test system: COLO 205
SK-MEL-5 = test system: SK-MEL-5
OVCAR-3 = test system: OVCAR-3
A549 = test system: A549
UO-31 = test system: UO-31
Malme-3M = test system: Malme-3M
ACHN = test system: ACHN
MCF7 = test system: MCF7
SNB-75 = test system: SNB-75
K562 = test system: K562
SK-OV-3 = test system: SK-OV-3
UACC-257 = test system: UACC-257
MOLT-4 = test system: MOLT-4
SNB-19 = test system: SNB-19
DU-145 = test system: DU-145
CAKI-1 = test system: CAKI-1
PC-3 = test system: PC-3
SF-539 = test system: SF-539
SF-268 = test system: SF-268
SK-MEL-28 = test system: SK-MEL-28

| SMILES | GI50 (COLO 205) | GI50 (SK-MEL-5) | GI50 (OVCAR-3) | GI50 (A549) | GI50 (UO-31) | GI50 (Malme-3M) | GI50 (ACHN) | GI50 (MCF7) | GI50 (SNB-75) | GI50 (K562) | GI50 (SK-OV-3) | GI50 (UACC-257) | GI50 (MOLT-4) | GI50 (SNB-19) | GI50 (DU-145) | GI50 (CAKI-1) | GI50 (PC-3) | GI50 (SF-539) | GI50 (SF-268) | GI50 (SK-MEL-28) |
| --- | --- | --- | --- | --- | --- | --- | --- | --- | --- | --- | --- | --- | --- | --- | --- | --- | --- | --- | --- | --- |
| COc1ccc(-c2c3c(nc4[nH]c(=S)[nH]c(=S)c24)CCCC3)cc1OC | 45 µM (inactive) | 16.6 µM (inactive) | 52.1 µM (inactive) | 21.3 µM (inactive) | 14.6 µM (inactive) | 29 µM (inactive) | 51.1 µM (inactive) | 29.6 µM (inactive) | 14.3 µM (inactive) | 30 µM (inactive) | 44.4 µM (inactive) | 32 µM (inactive) | 19.9 µM (inactive) | 34.3 µM (inactive) | 35.8 µM (inactive) | 34.7 µM (inactive) | 24 µM (inactive) | 15.3 µM (inactive) | 31 µM (inactive) | 24.2 µM (inactive) |
| COc1ccc(C(=C2C=CC=C2)c2ccc(OC)cc2)cc1 | 23.7 µM (inactive) | 30.2 µM (inactive) | 47.1 µM (inactive) | 44.9 µM (inactive) | 28.5 µM (inactive) | 28.8 µM (inactive) | 36.7 µM (inactive) | 13.1 µM (inactive) | 59 µM (inactive) | 22.2 µM (inactive) | 18.2 µM (inactive) | 34.4 µM (inactive) | 14.5 µM (inactive) | 28 µM (inactive) | 40.7 µM (inactive) | 23 µM (inactive) | 47.5 µM (inactive) | 10.8 µM (inactive) | 55.7 µM (inactive) | 53.5 µM (inactive) |
| CCOC(=O)C1=C(C)N(c2ccc(Cl)cc2)C2(O)C=CC(Nc3ccc(Cl)cc3)=C3C(=O)N(c4ccccc4)C(=O)C312 (stereo not given) | 2.44 µM (inactive) | 2.39 µM (inactive) | 0.313 µM (active) | 3.52 µM (inactive) | 4.89 µM (inactive) | 7.71 µM (inactive) | 6.75 µM (inactive) | 2.05 µM (inactive) | 4.18 µM (inactive) | 3.23 µM (inactive) | 8.85 µM (inactive) | 13.3 µM (inactive) | 2.12 µM (inactive) | 5.68 µM (inactive) | 4.27 µM (inactive) | 1.87 µM (inactive) | 2.94 µM (inactive) | 3.87 µM (inactive) | 2.4 µM (inactive) | 2.36 µM (inactive) |
| CC[N+]1(C)CCC(O)(c2ccccc2)C(C(=O)c2ccccc2)C1 (stereo not given) | 9.38 µM (inactive) | 18.6 µM (inactive) | 19.3 µM (inactive) | 16 µM (inactive) | 18.7 µM (inactive) | 16.7 µM (inactive) | 10.1 µM (inactive) | 2.73 µM (inactive) | 12.6 µM (inactive) | 2.11 µM (inactive) | 17.3 µM (inactive) | 17.5 µM (inactive) | 3.04 µM (inactive) | 15.5 µM (inactive) | 22.1 µM (inactive) | 4.14 µM (inactive) | 17.9 µM (inactive) | 16.7 µM (inactive) | 23.6 µM (inactive) | 15.2 µM (inactive) |
| COc1ccc(C2=NN(C(=O)c3ccc(Cl)cc3)C(O)(c3cc(F)c(Cl)cc3Cl)C2)cc1 (stereo not given) | 93.5 µM (inactive) | > 100 µM (inactive) | > 100 µM (inactive) | 49.2 µM (inactive) | 16.9 µM (inactive) | > 100 µM (inactive) | > 100 µM (inactive) | 19 µM (inactive) | 15 µM (inactive) | 40.6 µM (inactive) | > 100 µM (inactive) | 49.9 µM (inactive) | 12.8 µM (inactive) | > 100 µM (inactive) | > 100 µM (inactive) | 27.4 µM (inactive) | 61.9 µM (inactive) | > 100 µM (inactive) | > 100 µM (inactive) | > 100 µM (inactive) |

Source: ChEMBL document CHEMBL1201862, “PubChem BioAssay data set” (2004)
